# Data as given in paper PMC12040169 (PLOS Biology, 2025).
# Test: in vitro
# Details: human, hela cells, % viability
row,Structure (SMILES),"viability at 28.5 h, 10 µM [%]"
1,Cc1ccc(NC(=O)CN(c2ccccc2)S(=O)(=O)c2ccccc2[N+](=O)[O-])cc1C [CBK262345],57.7
2,CC(C)N/C(=N/S(=O)(=O)c1ccccc1)c1ccccc1 [CBK262346],98.2
3,O=C1c2ccccc2S(=O)(=O)N1CC(O)Cn1c2ccc(Br)cc2c2cc(Br)ccc21 (stereo not shown) [CBK262347],112
4,O=C(CCn1c(-c2ccccc2)c(-c2ccccc2)c2ccccc21)N/N=C/c1cccc(O)c1 [CBK262348],52.1
5,COc1ccc(-c2nc3c(n2O)CCc2c-3no[n+]2[O-])cc1OC [CBK262350],80.3
6,CN1C(=O)CC(NCc2ccc(S(N)(=O)=O)cc2)C1=O (stereo not shown) [CBK262352],87.4
7,O=C(CCn1c(-c2ccccc2)c(-c2ccccc2)c2ccccc21)N/N=C/c1ccccc1O [CBK262353],66.9
8,COc1ccc(CCN2C(=O)CC(N3CCN(c4ccccc4)CC3)C2=O)cc1OC (stereo not shown) [CBK262354],106
9,CCOC(=O)c1ccc(N/C=C(\C#N)c2nc(-c3cc4ccccc4oc3=O)cs2)cc1 [CBK262356],83.1
10,O=C(O)c1ccc(S(=O)(=O)NCc2ccc3c(c2)OCO3)cc1 [CBK262360],97
11,O=C(O)COc1ccc(Br)cc1/C=N/Nc1cccc2cccnc12 [CBK262362],112
12,Cc1ccc2[nH]c3nc(N/N=C/c4ccc(-c5cccc([N+](=O)[O-])c5)o4)nnc3c2c1 [CBK262365],106
13,N#C/C(=C\Nc1ccc(S(N)(=O)=O)cc1)c1nc(-c2cccc([N+](=O)[O-])c2)cs1 [CBK262366],115
14,O=C(O)COc1ccc(Br)cc1/C=N/Nc1ccccn1 [CBK262369],102
15,O=C(O)c1cc(S(=O)(=O)Nc2ccccc2C(=O)O)ccc1Br [CBK262371],98.8
16,COc1cc(/C=N\Nc2nnc3c(n2)[nH]c2c(C)cccc23)cc(Br)c1O [CBK262375],106
17,N#C/C(=C\Nc1ccc(S(N)(=O)=O)cc1)c1nc(-c2cc3c(ccc4ccccc43)oc2=O)cs1 [CBK262376],105
18,COc1cc(/C=N/NC(=O)c2nonc2N)ccc1OC(=O)c1cc(F)c(F)cc1Cl [CBK262380],90.1
19,Cc1cccc(C2(c3cccc(C)c3)CC2C(=O)NCc2cccnc2)c1 (stereo not shown) [CBK262382],106
20,O=C(O)CCn1c(SCCc2ccccc2)nc2ccccc21 [CBK262384],107
21,NC(C(=O)O)C(O)c1ccccc1[N+](=O)[O-] (stereo not shown) [CBK262389],92.7

row,Structure (SMILES),"viability at 28.5 h, 10 µM [%]"
1,COc1cc(C(C)=O)ccc1OC(=O)CN1C(=O)c2ccccc2C1=O [CBK262392],112
2,COc1cccc(C(C(F)(F)F)P(C)(=O)O)c1 (stereo not shown) [CBK262393],96.8
3,O=C(CC1CS(=O)(=O)CC1CC(=O)Nc1cccc(Cl)c1Cl)Nc1cccc(Cl)c1Cl (stereo not shown) [CBK262404],95.3
4,CC1=NN(c2ccc(Cl)cc2)C(=O)/C1=C\Nc1nnn[nH]1 [CBK262407],91
5,COc1ccc(N(C(C)C(=O)N/N=C2\C(=O)Nc3ccccc32)S(C)(=O)=O)cc1 (stereo not shown) [CBK262408],98.5
6,Cc1ccc(N(CC(=O)O)S(=O)(=O)c2ccc(C)cc2)cc1 [CBK262409],106
7,COc1cccc(NC(=O)C2CCCCC2C(=O)O)c1 (stereo not shown) [CBK262410],93.1
8,O=C(O)CSc1nc2ccccc2n1Cc1ccccc1 [CBK262411],94.2
9,Brc1ccc2nc3c(nc2c1)Nc1nonc1N3 [CBK262414],78.5
10,COC(=O)c1ccc(C)c(N(CCO)CCO)c1 [CBK262418],102
11,O=C(O)c1cccc(N(CCO)CCO)c1 [CBK262419],93.6
12,O=CNC(Cc1ccc(O)c([N+](=O)[O-])c1)C(=O)O (stereo not shown) [CBK262421],101
13,O=C(O)c1cc(-c2ccc3c(c2)OCCO3)nc2ccccc12 [CBK262422],92.5
14,Cc1ccc(S(=O)(=O)N(CC(=O)O)c2ccccc2C)cc1 [CBK262423],101
15,O=C1C2C(c3ccccc3Cl)OC3(C(=O)c4ccccc4C3=O)C2C(=O)N1c1ccc([N+](=O)[O-])cc1 (stereo not shown) [CBK262425],101
16,O=c1cccc2n1CC1CC2CN(Cc2cccc(OCc3ccccc3)c2)C1 (stereo not shown) [CBK262426],102
17,CC1=NN(c2nc(-c3cccc([N+](=O)[O-])c3)cs2)C(=O)C1/N=N/c1ccc(C)c(Br)c1 (stereo not shown) [CBK262430],104
18,C=CCN1C(=O)/C(=C2/Sc3ccc(OC)cc3N2C)S/C1=N\c1cc(C#N)ccc1NCC [CBK262431],108
19,O=C(O)c1ccc(/C=N/Nc2nc(N3CCOCC3)nc(N3CCOCC3)n2)cc1 [CBK262433],99
20,CC1=NN(c2nc(-c3ccc(Br)cc3)cs2)C(=O)C1/N=N/c1ccc(C(=O)O)cc1 (stereo not shown) [CBK262435],86.7
21,COc1cc2c(cc1NC(=O)C/C(C)=N/NC(=O)c1ccccc1F)oc1ccccc12 [CBK262437],106

row,Structure (SMILES),"viability at 28.5 h, 10 µM [%]"
1,Cn1c(=O)[nH]c(=O)c2c1nc(N1CCOCC1)n2CC(O)COc1ccc(I)cc1 (stereo not shown) [CBK262438],111
2,O=C(O)c1cccc(N2C(=O)C3C(C2=O)C2(c4ccccc4)C(=O)C3(c3ccccc3)C(c3ccccc3)=C2c2ccccc2)c1 (stereo not shown) [CBK262439],84.8
3,O=C(O)Cn1cnc(-c2ccc(Br)cc2)c1 [CBK262441],111
4,COC(=O)c1ccc2c(c1)[n+](CCO)c(C)n2CCO [CBK262443C],88.1
5,CNC(=S)NNC(=O)CN1CCSCC1 [CBK262444],88.3
6,N=C(SC1CC(=O)N(c2ccc(C(=O)O)cc2)C1=O)N1N=C(c2ccccc2)CC1c1ccccc1 (stereo not shown) [CBK262446],90.9
7,COC(=O)Cn1c(=N)n(CCN2CCOCC2)c2ccccc21 [CBK262447B],109
8,O=[N+]([O-])c1ccc(-c2csc(Nc3ccc4c(c3)OCO4)n2)cc1 [CBK262448B],100
9,O=C(NC(c1ccccc1)c1ccccc1)c1ccc(Cl)cc1[N+](=O)[O-] [CBK262452],84.1
10,CCN(CC)CCNc1nc2cc(Cl)ccc2[nH]1 [CBK262453],102
11,COc1cc(/C=N/NC(=O)c2ccncc2)ccc1OCc1ccc(Cl)cc1 [CBK262454],114
12,COc1ccc(C(=O)Nc2ccc(C(C)=O)cc2)cc1[N+](=O)[O-] [CBK262457],90.8
13,CC(/C=C/c1ccc(N(C)C)cc1)=N\NC(=N)SC1CC(=O)N(c2ccc(C(=O)O)cc2)C1=O (stereo not shown) [CBK262460],91.6
14,O=C(N/N=C/c1c[nH]nc1-c1ccccc1)c1cccnc1 [CBK262461],101
15,NS(=O)(=O)c1ccc(CNC2CC(=O)N(CCc3ccccc3)C2=O)cc1 (stereo not shown) [CBK262464],91.7
16,COc1cc(NS(=O)(=O)c2ccc(NC(=O)c3cccc4ccccc34)cc2)nc(OC)n1 [CBK262465],96.6
17,Cc1cc(C(=O)NCCCN(C)C)ccc1[N+](=O)[O-] [CBK262467],90.8
18,Oc1cccc(/C=N/Nc2nncc(-c3ccccc3)n2)c1 [CBK262468],86.6
19,N=c1n(Cc2ccccc2)c2ccccc2n1CC(O)COc1ccc(Cl)cc1 (stereo not shown) [CBK262469C],94.4
20,O=C(CN(c1cccc(Cl)c1)S(=O)(=O)c1ccccc1)NN=C1CCCCC1 [CBK262470],114
21,Cc1cc([N+](=O)[O-])cc2c1NC(=O)C2(O)N1CCOCC1 (stereo not shown) [CBK262475],91.7

row,Structure (SMILES),"viability at 28.5 h, 10 µM [%]"
1,C=CCn1c(=O)c(C(=O)NCCCO)c(O)c2ccccc21 [CBK262481],83.9
2,COc1cc(/C=C(\C#N)c2nn(-c3ccccc3)c(N)c2C#N)ccc1Oc1ccc(C(F)(F)F)cc1[N+](=O)[O-] [CBK262484],92.7
3,NC(=O)c1c(NC(=O)c2ccc(S(=O)(=O)N3CCCC3)cc2)sc2c1CCCC2 [CBK262486],106
4,CCC(=O)c1c(-c2ccccc2)nc2n(C)c3ccccc3n12 [CBK262488],69.9
5,Cc1ccc(C)c(Nc2nc3nonc3nc2N2CCOCC2)c1 [CBK262491],88.8
6,Oc1ccc(/C=N/Nc2nncc(-c3ccccc3)n2)c(O)c1O [CBK262492],80.6
7,O=C(N/N=C/c1ccc(N2N=C(c3ccc(Cl)cc3)CC2c2ccc(Cl)cc2)cc1)c1cccnc1 (stereo not shown) [CBK262494],103
8,CCN(CC)CC(O)Cn1c(-c2ccccc2Cl)nc2ccccc21 (stereo not shown) [CBK262495],96.3
9,COc1ccc([N+](=O)[O-])cc1-c1ccc(-c2nc(-c3ccccc3)c(-c3ccccc3)[nH]2)o1 [CBK262497],77.3
10,Cn1c(CNc2ccc(C(=O)O)cc2)nc2ccccc21 [CBK262501],95.1
11,CCOC(=O)c1[nH]c(C)c(C(=O)N/N=C/c2ccc(-c3ccc(Cl)cc3)o2)c1C [CBK262503],95
12,O=C1c2ccccc2C(=O)N1c1ccc(S(=O)(=O)NCCCO)c2ccccc12 [CBK262509],105
13,N=c1n(CCN2CCCCC2)c2ccccc2n1CC(O)COc1ccc(Cl)cc1 (stereo not shown) [CBK262512C],89.7
14,CC(=O)Nc1nnc(SCCc2ccccc2)[nH]1 [CBK262514],95.6
15,NNC(=O)c1c(NC(=O)c2ccccc2)sc2c1CCC2 [CBK262516],104
16,CCN(CC)CCn1c(=N)n(CC(=O)OC)c2ccccc21 [CBK262517B],87.3
17,O=C(CN(c1cccc(Cl)c1)S(=O)(=O)c1ccccc1)NN=C1CCCCCC1 [CBK262519],89.9
18,CC1(C)CC(=O)C(=CNCC(N)=O)C(=O)C1 [CBK262520],87.2
19,O=C1CC(c2ccccc2)CC(=O)C1=CNCCN1CCOCC1 (stereo not shown) [CBK262522],94

# Same assay, conditions: human, hela cells, % viability, bulk resorufin, single well
row,Structure (SMILES),"viability at 28.5 h, 10 µM [%]"
1,CCN(CC)CCCNC=C1C(=O)NC(=O)NC1=O [CBK262403],94
2,CN(C)Cc1c(O)[nH]c(=S)[nH]c1=O [CBK262474],92.6
3,O=c1[nH]c(=S)[nH]c(O)c1CN1CCOCC1 [CBK262493],98.7
